From patent publication US20260325685A1, “Radiopharmaceutical Compositions Targeting Carbonic Anhydrase IX and Uses Thereof” (RayzeBio, Inc., priority 2023, published 2026)
Like-named read-outs stand apart in the source and are kept apart here.

Columns and labels:
human CA-XII = biological target: T1, human CA-XII (Homo sapiens, UniProt O43570); test: Surface Plasmon Resonance (SPR) binding kinetics to recombinant human CA-XII (Biacore 8K, single-cycle kinetics, 1:1 binding model)
T1 construct: purchased Creative BioMart CA12-261H
T1 sequence (O43570 25-354): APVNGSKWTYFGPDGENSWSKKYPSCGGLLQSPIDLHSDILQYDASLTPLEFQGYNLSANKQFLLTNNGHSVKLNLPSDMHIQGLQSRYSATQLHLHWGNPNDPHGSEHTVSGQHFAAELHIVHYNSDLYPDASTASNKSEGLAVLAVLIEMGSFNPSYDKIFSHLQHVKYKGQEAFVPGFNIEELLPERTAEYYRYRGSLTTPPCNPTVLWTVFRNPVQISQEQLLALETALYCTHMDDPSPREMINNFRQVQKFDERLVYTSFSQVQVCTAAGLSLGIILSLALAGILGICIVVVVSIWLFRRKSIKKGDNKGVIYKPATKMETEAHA
Method in brief: (§1)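 Proteins were captured on streptavidin chips at 1200-1800 RU (CA-IX 180 s, CA-XII 75 s injection). Compound was run at 9 concentrations (100-0.39 nM) in PBS-P+ pH 7.4 with 1% DMSO, 120 s association, 1200 s dissociation, 25° C. Rate constants came from reference- and DMSO-corrected curves.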

human CA-IX = biological target: T2, human CA-IX (Homo sapiens, UniProt Q16790); test: Surface Plasmon Resonance (SPR) binding kinetics to recombinant human CA-IX (Biacore 8K, single-cycle kinetics, 1:1 binding model)
T2 construct: purchased Acro CA9-H82E3
Method in brief: as §1

[1] = Chelated Metal: Lu-175, 25° C., pH 7.4, read-out: CAXII KD
[2] = Chelated Metal: Lu-175; SPR, 25° C., pH 7.4; read-out: CAIX KD

Structure (SMILES)	Kd (human CA-XII; [1])	Kd (human CA-IX; [2])	further results
NS(=O)(=O)c1nnc(NC(=O)C23CC(c4cn(C[C@H]5CN(C(=O)CN6CCN(CC(=O)O)CCN(CC(=O)O)CCN(CC(=O)O)CC6)CCN5C(=O)[C@@H]5COCCN5C(=O)Cc5n[nH]c6ccccc56)nn4)(C2)C3)s1.[Lu+3] [Compound 114.2]	> 10 nM	1 to 2.5 nM	
CC(CCC(=O)N[C@@H](CC(=O)N[C@@H](CC(=O)N1CCN(C(=O)CN2CCN(CC(=O)O)CCN(CC(=O)O)CCN(CC(=O)O)CC2)C[C@H]1C(=O)NCCn1cc(C23CC(C(=O)Nc4nnc(S(N)(=O)=O)s4)(C2)C3)nn1)C(=O)O)C(=O)O)(c1ccc(O)cc1)c1ccc(O)cc1.[Lu+3] [Compound 107.38]	> 10 nM	< 1 nM	
CN1CCN(C(=O)CCCC(C)(c2ccc(O)cc2)c2ccc(O)cc2)[C@H](C(=O)N[C@@H](CC(=O)N2CCN(C(=O)CN3CCN(CC(=O)O)CCN(CC(=O)O)CCN(CC(=O)O)CC3)C[C@@H]2C(=O)NCCn2cc(C34CC(C(=O)Nc5nnc(S(N)(=O)=O)s5)(C3)C4)nn2)C(=O)O)C1.[Lu+3] [Compound 107.25]	> 10 nM	< 1 nM	
NS(=O)(=O)c1nnc(NC(=O)C23CC(c4cn(CCNC(=O)[C@@H]5CN(C(=O)CN6CCN(CC(=O)O)CCN(CC(=O)O)CCN(CC(=O)O)CC6)CCN5C(=O)C[C@H](NC(=O)C[C@H](NC(=O)CCCc5ccc6c(c5)CCCC6)C(=O)O)C(=O)O)nn4)(C2)C3)s1.[Lu+3] [Compound 109.36]	2.5 to 10 nM	1 to 2.5 nM	
Cc1cc(C(=O)Nc2nnc(S(N)(=O)=O)s2)ccc1-c1cn(CCNC(=O)C2(NC(=O)CNC(=O)C3(C(N)=O)CCN(C(=O)CCCC(C)(c4ccc(O)cc4)c4ccc(O)cc4)CC3)CCN(C(=O)CN3CCN(CC(=O)O)CCN(CC(=O)O)CCN(CC(=O)O)CC3)CC2)nn1.[Lu+3] [Compound 117.7]	> 10 nM	< 1 nM	
NS(=O)(=O)c1nnc(NC(=O)C23CCC(c4cn(CCNC(=O)[C@@H]5CN(C(=O)CN6CCN(CC(=O)O)CCN(CC(=O)O)CCN(CC(=O)O)CC6)CCN5C(=O)CC[C@H](NC(=O)C[C@H](NC(=O)c5n[nH]c6ccc(O)cc56)C(=O)O)C(=O)O)nn4)(CC2)CC3)s1.[Lu+3] [Compound 109.45]	< 1 nM	< 1 nM	
CC(CCCOc1cc(NC(CC(=O)N[C@@H](CCCCn2cc(CCCC(=O)Nc3nnc(S(N)(=O)=O)s3)nn2)C(=O)NCCOCCOCCNC(=O)CN2CCN(CC(=O)O)CCN(CC(=O)O)CCN(CC(=O)O)CC2)C(=O)O)cc(C(=O)O)c1)(c1ccc(O)cc1)c1ccc(O)cc1.[Lu+3] (some centres unmarked) [Compound 102.7]	2.5 to 10 nM	< 1 nM	
CC(CCCC(=O)N1CCC(C(N)=O)(C(=O)NCC(=O)N2CCN(C(=O)CC[C@H](C(=O)O)N3CCN(CC(=O)O)CCN(CC(=O)O)CCN(CC(=O)O)CC3)C[C@H]2C(=O)NCCn2cc(C34CC(C(=O)Nc5nnc(S(N)(=O)=O)s5)(C3)C4)nn2)CC1)(c1ccc(O)c(F)c1)c1ccc(O)c(F)c1.[Lu+3] [Compound 127.8]	> 10 nM	< 1 nM	
NS(=O)(=O)c1nnc(NC(=O)C23CC(c4cn(C[C@H]5CN(C(=O)CN6CCN(CC(=O)O)CCN(CC(=O)O)CCN(CC(=O)O)CC6)CCN5C(=O)[C@@H]5COCCN5C(=O)CCc5n[nH]c6ccccc56)nn4)(C2)C3)s1.[Lu+3] [Compound 114.3]	> 10 nM	1 to 2.5 nM	
NS(=O)(=O)c1nnc(NC(=O)C23CC(c4cn(CCNC(=O)[C@@H]5CN(C(=O)CN6CCN(CC(=O)O)CCN(CC(=O)O)CCN(CC(=O)O)CC6)CCN5C(=O)CNC(=O)C5(C(=O)O)CCN(C(=O)Cc6c[nH]nc6C(F)(F)F)CC5)nn4)(C2)C3)s1.[Lu+3] [Compound 112.14]	> 10 nM	2.5 to 10 nM	
CC(CCC(=O)N[C@@H](CC(=O)N[C@@H](CC(=O)N1CCN(C(=O)CN2CCN(CC(=O)O)CCN(CC(=O)O)CCN(CC(=O)O)CC2)C[C@H]1C(=O)NCCn1cc(C23CC(c4cn5nc(S(N)(=O)=O)sc5n4)(C2)C3)nn1)C(=O)O)C(=O)O)(c1ccc(O)cc1)c1ccc(O)cc1.[Lu+3] [Compound 107.27]	< 1 nM	< 1 nM	
NS(=O)(=O)c1nnc(NC(=O)C23CC(c4cn(CCNC(=O)[C@@H]5CN(C(=O)CN6CCN(CC(=O)O)CCN(CC(=O)O)CCN(CC(=O)O)CC6)CCN5C(=O)CNC(=O)C5(C(=O)O)CCN(C(=O)Cc6ccc7[nH]ncc7c6)CC5)nn4)(C2)C3)s1.[Lu+3] [Compound 112.16]	> 10 nM	2.5 to 10 nM	
CC(CCC(=O)N[C@@H](CC(=O)N[C@@H](CC(=O)NC1(CCCCn2cc(CCCC(=O)Nc3nnc(S(N)(=O)=O)s3)nn2)CCN(C(=O)CN2CCN(CC(=O)O)CCN(CC(=O)O)CCN(CC(=O)O)CC2)CC1)C(=O)O)C(=O)O)(c1ccc(O)cc1)c1ccc(O)cc1.[Lu+3] [Compound 116]			Kd (human CA-XII; read-out: CAXII KD, Chelated Metal: Lu-175, 25° C., pH 7.4): 2.5 to 10 nM; Kd (human CA-IX; read-out: CAIX KD; Chelated Metal: Lu-175; SPR, 25° C., pH 7.4): 1 to 2.5 nM
CC(CCC(=O)N[C@@H](CC(=O)N[C@@H](CC(=O)N1CCN(C(=O)CCOCCOCCOCCOCCN(CCOCCOCCOCCOCCC(=O)N2CCN(C(=O)C[C@H](NC(=O)C[C@H](NC(=O)CCC(C)(c3ccc(O)cc3)c3ccc(O)cc3)C(=O)O)C(=O)O)[C@H](C(=O)NCCn3cc(C45CC(C(=O)Nc6nnc(S(N)(=O)=O)s6)(C4)C5)nn3)C2)C(=O)CN2CCN(CC(=O)O)CCN(CC(=O)O)CCN(CC(=O)O)CC2)C[C@H]1C(=O)NCCn1cc(C23CC(C(=O)Nc4nnc(S(N)(=O)=O)s4)(C2)C3)nn1)C(=O)O)C(=O)O)(c1ccc(O)cc1)c1ccc(O)cc1 [Compound 131.1]			Kd (human CA-XII; Chelated Metal: None, 25° C., pH 7.4, read-out: CAXII KD): < 1 nM; Kd (human CA-IX; Chelated Metal: None; SPR, 25° C., pH 7.4; read-out: CAIX KD): < 1 nM; Ratio (CAXII/CAIX) (human CA-IX; KD ratio CAXII/CAIX; Chelated Metal: None): * (1 < * < 5)
CCC(CC)Nc1c(F)c(S(N)(=O)=O)c(F)c(F)c1S(=O)(=O)CCOCc1cn(CCNC(=O)[C@H]2CN(C(=O)CN3CCN(CC(=O)O)CCN(CC(=O)O)CCN(CC(=O)O)CC3)CCN2C(=O)C[C@H](NC(=O)[C@@H]2COCCN2C(=O)CCCc2ccc(O)cc2)C(=O)O)nn1.[Lu+3] [Compound 107.41]	> 10 nM	1 to 2.5 nM	
CNC(=O)C1(C(=O)NCC(=O)N2CCN(C(=O)CN3CCN(CC(=O)O)CCN(CC(=O)O)CCN(CC(=O)O)CC3)C[C@@H]2C(=O)NCCn2cc(C34CC(C(=O)Nc5nnc(S(N)(=O)=O)s5)(C3)C4)nn2)CCN(C(=O)CCCC(C)(c2ccc(O)cc2)c2ccc(O)cc2)CC1.[Lu+3] [Compound 107.34]	> 10 nM	< 1 nM	
NS(=O)(=O)c1nnc(NC(=O)C23CC(c4cn(CCNC(=O)[C@@H]5CN(C(=O)CN6CCN(CC(=O)O)CCN(CC(=O)O)CC6)CCN5C(=O)C[C@H](NC(=O)C[C@H](NC(=O)c5ccc(C6CC6)cn5)C(=O)O)C(=O)O)nn4)(C2)C3)s1.[Cu+2] [Compound 126.2]			Kd (human CA-XII; Chelated Metal: Cu (cold), 25° C., pH 7.4, read-out: CAXII KD): 2.5 to 10 nM; Kd (human CA-IX; Chelated Metal: Cu (cold); SPR, 25° C., pH 7.4; read-out: CAIX KD): < 1 nM
NS(=O)(=O)c1nnc(NC(=O)C23CC(c4cn(CCNC(=O)[C@@H]5CN(C(=O)CN6CCN(CC(=O)O)CCN(CC(=O)O)CCN(CC(=O)O)CC6)CCN5C(=O)CNC(=O)C5(C(=O)O)CCN(C(=O)CCC6CCCCCC6)CC5)nn4)(C2)C3)s1.[Lu+3] [Compound 112.7]	> 10 nM	< 1 nM	
CC(CCCC(=O)N1CCC(CN)(C(=O)NCC(=O)N2CCN(C(=O)CN3CCN(CC(=O)O)CCN(CC(=O)O)CCN(CC(=O)O)CC3)C[C@@H]2C(=O)NCCn2cc(C34CC(C(=O)Nc5nnc(S(N)(=O)=O)s5)(C3)C4)nn2)CC1)(c1ccc(O)cc1)c1ccc(O)cc1.[Lu+3] [Compound 107.51]	> 10 nM	1 to 2.5 nM	
NS(=O)(=O)c1nnc(NC(=O)C23CCC(c4cn(CCNC(=O)[C@@H]5CN(C(=O)CN6CCN(CC(=O)O)CCN(CC(=O)O)CCN(CC(=O)O)CC6)CCN5C(=O)CC[C@H](NC(=O)C[C@H](NC(=O)CCC5CC5)C(=O)O)C(=O)O)nn4)(CC2)CC3)s1.[Lu+3] [Compound 109.48]	< 1 nM	< 1 nM	
